Measurements published in ChEMBL document CHEMBL1136215, “Potent quinoxaline-based inhibitors of PDGF receptor tyrosine kinase activity. Part 1: SAR exploration and effective bioisosteric replacement of a phenyl substituent” (Bioorg Med Chem Lett, 2003).

tested on: HASMC; test: Inhibition of mitogenesis in human aortic smooth muscle cells(HASMC); type: functional, cell-based

| IC50 [nM] | Compound |
| --- | --- |
| 585 | COc1cc2ncc(N[C@H]3CC4CCC3C4)nc2cc1OC (some centres not stated) |
| 61 | COc1cc2ncc(N[C@@H]3CC4CCC3C4)nc2cc1OC (stereo in doubt; 38) |
| 395 | COc1cc2ncc(O[C@H]3CC4CCC3C4)nc2cc1OC (mixture of isomers) |

target: T1, Platelet-derived growth factor receptor (Homo sapiens, UniProt P09619+P16234); test: Inhibition of Platelet-derived growth factor receptor; type: protein-complex assay

| IC50 [nM] | Compound |
| --- | --- |
| 65 | COc1cc2ncc(OC3CCCCC3)nc2cc1OC |
| 5100 | c1ccc(Nc2cnc3ccccc3n2)cc1 |
| 128 | COc1cc2ncc(NC3CCCC3)nc2cc1OC |
| 601 | COc1cc2cc(OC3CCCCC3)cnc2cc1OC |
| 124 | COc1cc2ncc(NC3CCCCC3)nc2cc1OC |
| 879 | COc1cc2ncc(N[C@@H]3CC4CCC3C4)nc2cc1OC (mixture of isomers) |
| 265 | COc1cc2ncc(O[C@@H]3CC4CCC3C4)nc2cc1OC (mixture of isomers) |
| 742 | COc1cc2ncc(N[C@H]3CC4CCC3C4)nc2cc1OC (some centres not stated) |
| 42 | COc1ccc2ncc(Nc3ccccc3)nc2c1 |
| 461 | COc1cc2cc(-c3ccsc3)cnc2cc1OC |
| 96 | COc1cc2cc(NC3CCCCC3)cnc2cc1OC |
| 20 | COc1cc2ncc(NC3CC4CCC3C4)nc2cc1OC (racemic) |
| 159 | COc1cc2ncc(OC3CCCC3)nc2cc1OC |
| 15 | COc1cc2ncc(N[C@@H]3CC4CCC3C4)nc2cc1OC (stereo in doubt; 38) |
| 6 | COc1cc2ncc(Nc3ccccc3)nc2cc1OC |
| 226 | COc1cc2ncc(SC3CCCC3)nc2cc1OC |
| 1600 | COc1ccc2nc(Nc3ccccc3)cnc2c1 |
| 340 | Cc1cc2ncc(Nc3ccccc3)nc2cc1C |
| 92 | COc1cc2ncc(NCc3ccccc3)nc2cc1OC |
| 25 | COc1cc2ncc(O[C@H]3CC4CCC3C4)nc2cc1OC (mixture of isomers) |
| 41 | COc1cc2ncc(NC3CCCC(C)C3)nc2cc1OC (configuration not stated) |
| 4 | COc1cc2ncc(Nc3cccc(Cl)c3)nc2cc1OC |

target: T1, Platelet-derived growth factor receptor; test: Inhibition of Platelet-derived growth factor receptor at 1 uM; type: protein-complex assay

| inhibition [%] | Compound |
| --- | --- |
| 16 | CCC1CCC(Oc2cnc3cc(OC)c(OC)cc3n2)CC1 (configuration not stated) |
| 0 | COc1cc2ncc(N(C)c3ccccc3)nc2cc1OC |
| 8 | COc1cc2ncc(Nc3ccc(Cl)cc3)nc2cc1OC |
| 11 | COc1cccc2ncc(Nc3ccccc3)nc12 |
| 12 | COc1cc2ncc(NCC3CCCCC3)nc2cc1OC |
| 0 | COc1cc2ncc(SC3CCCCC3)nc2cc1OC |
| 5 | COc1cccc2nc(Nc3ccccc3)cnc12 |
